The source made the active and inactive calls. No cut-off for these calls is given here.

Assay [1] deals with RS4-11. As to the kind of experiment: Antiproliferative activity against human RS4;11 cells harbouring p53 wild type assessed as inhibition of cell growth measured after 4 days by WST-8 assay. Format: functional, cell-based. Conditions: RS4-11, 96 h.
Assay [2] relates to RS4-11. As to the kind of experiment: Antiproliferative activity against human RS4;11 cells harbouring p53 mutant assessed as inhibition of cell growth measured after 4 days by WST-8 assay. Conditions: RS4-11, 96 h. The class given is functional, cell-based.
The target of assay [3] is Protein cereblon/Eukaryotic peptide chain release factor GTP-binding subunit ERF3A (Homo sapiens) (UniProt Q96SW2+P15170). As to the kind of experiment: PROTAC activity at CRBN/GSPT1 in human RS4;11 cells assessed as induction of GSPT1 degradation at 10 to 1000 nM measured after 4 hrs by Western blot analysis. Format: cell-based. Particulars: dose 10-1000 nM.
In assay [4] the test system is RS4-11. As to the kind of experiment: Antitumor activity against human RS4;11 cells xenografted in SCID mouse model assessed as tumor regression at 50 mg/kg, iv qd administered every other for 2 weeks by caliper method. The class given is functional, organism-based. For orientation: In xenograft studies the graft and the host belong to different species.
The test system of assay [5] is RS4-11. The experiment in a line: Antiproliferative activity against human RS4;11 cells assessed as inhibition of cell growth measured after 4 days by WST-8 assay. Format: functional, cell-based.
Assay [6] relates to RS4-11. As to the kind of experiment: Upregulation of p53 level in human RS4;11 cells harbouring wild type p53 at 10 to 300 nM measured after 2 hrs by Western blot analysis. Particulars: dose 10-300 nM. The class given is functional, cell-based. For orientation: In western blotting, separated proteins are transferred to a membrane and probed.
In assay [7] the test system is RS4-11. The experiment in a line: Downregulation of MDM2 level in human RS4;11 cells harbouring wild type p53 at 10 to 300 nM measured after 2 hrs by Western blot analysis. The class given is functional, cell-based. Conditions: dose 10-300 nM.

Chain of Protein cereblon/Eukaryotic peptide chain release factor GTP-binding subunit ERF3A (Homo sapiens) (P15170 whole entry, looked up): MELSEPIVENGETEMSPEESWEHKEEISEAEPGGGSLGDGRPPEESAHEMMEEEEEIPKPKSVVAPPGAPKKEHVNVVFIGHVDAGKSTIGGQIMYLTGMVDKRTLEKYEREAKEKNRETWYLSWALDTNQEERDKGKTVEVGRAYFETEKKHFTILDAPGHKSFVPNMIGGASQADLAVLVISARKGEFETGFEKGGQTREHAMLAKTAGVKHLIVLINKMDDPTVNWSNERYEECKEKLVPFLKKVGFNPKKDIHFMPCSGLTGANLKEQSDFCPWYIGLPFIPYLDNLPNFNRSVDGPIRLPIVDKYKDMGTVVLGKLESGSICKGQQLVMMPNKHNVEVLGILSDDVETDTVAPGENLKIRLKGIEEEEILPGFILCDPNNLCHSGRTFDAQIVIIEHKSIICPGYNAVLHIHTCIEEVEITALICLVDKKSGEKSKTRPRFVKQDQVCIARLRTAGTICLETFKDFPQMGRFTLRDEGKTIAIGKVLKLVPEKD
Chain of Protein cereblon/Eukaryotic peptide chain release factor GTP-binding subunit ERF3A (Homo sapiens) (Q96SW2 whole entry, looked up): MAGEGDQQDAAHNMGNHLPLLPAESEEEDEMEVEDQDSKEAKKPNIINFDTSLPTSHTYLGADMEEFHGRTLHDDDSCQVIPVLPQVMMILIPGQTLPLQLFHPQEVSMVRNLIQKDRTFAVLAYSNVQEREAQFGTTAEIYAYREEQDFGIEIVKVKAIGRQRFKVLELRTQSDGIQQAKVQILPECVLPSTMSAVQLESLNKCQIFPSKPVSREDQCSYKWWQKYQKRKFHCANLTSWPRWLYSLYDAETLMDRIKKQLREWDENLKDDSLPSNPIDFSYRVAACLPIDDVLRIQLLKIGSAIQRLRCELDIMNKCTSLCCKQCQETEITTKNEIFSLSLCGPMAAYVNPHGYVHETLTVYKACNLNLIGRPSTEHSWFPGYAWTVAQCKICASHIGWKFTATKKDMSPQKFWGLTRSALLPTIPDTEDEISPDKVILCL

Regarding `COc1cc(NC(=O)[C@@H]2NC3(CCCCC3)[C@@]3(C(=O)Nc4cc(Cl)ccc43)[C@H]2c2cccc(Cl)c2F)ccc1C(=O)NCCCC#Cc1cccc2c1CN(C1CCC(=O)NC1=O)C2=O` (some centres not stated), the IC50 (commonly the concentration at which inhibition is half-maximal) in the assay on RS4-11 [1] was 4 nM; in the assay with RS4-11 [2], above 1000 nM.
`COc1cc(C(=O)NCCCC#Cc2cccc3c2CN(C2CCC(=O)NC2=O)C3=O)ccc1NC(=O)[C@@H]1NC2(CCCCC2)[C@@]2(C(=O)Nc3cc(Cl)ccc32)[C@H]1c1cccc(Cl)c1F` (some centres not stated): the figures for the IC50 with RS4-11 [1] and in the assay on RS4-11 [2] were 8 nM and above 1000 nM, respectively.
For `O=C1CCC(N2Cc3c(NC4CCN(C(=O)c5ccc(NC(=O)[C@@H]6NC7(CCCCC7)[C@@]7(C(=O)Nc8cc(Cl)ccc87)[C@H]6c6cccc(Cl)c6F)cc5)CC4)cccc3C2=O)C(=O)N1` (some centres not stated), in that order: 19 nM and 33 nM.
With `O=C1CCC(N2Cc3c(C#CCCCNC(=O)c4cccc(NC(=O)[C@@H]5NC6(CCCCC6)[C@@]6(C(=O)Nc7cc(Cl)ccc76)[C@H]5c5cccc(Cl)c5F)c4)cccc3C2=O)C(=O)N1` (some centres not stated), the IC50 with RS4-11 [1] and in the assay with RS4-11 [2] was 3 nM each time. Besides, the result in assay [3] was Active.
As for `O=C1CCC(N2Cc3c(CC[C@H]4CC[C@H](NC(=O)c5ccc(NC(=O)[C@@H]6NC7(CCCCC7)[C@@]7(C(=O)Nc8cc(Cl)ccc87)[C@H]6c6cccc(Cl)c6F)cc5)CC4)cccc3C2=O)C(=O)N1` (some centres not stated), the IC50 with RS4-11 [1] is 34 nM; in the assay on RS4-11 [2], above 1000 nM.
For `O=C1CCC(N2Cc3c(NCC4CCN(CCNC(=O)c5ccc(NC(=O)[C@@H]6NC7(CCCCC7)[C@@]7(C(=O)Nc8cc(Cl)ccc87)[C@H]6c6cccc(Cl)c6F)cc5)CC4)cccc3C2=O)C(=O)N1` (some centres not stated), in that order: 9 nM and above 1000 nM.
Consider `O=C1CCC(N2Cc3c(C#CCCCNC(=O)[C@H]4CC[C@H](NC(=O)[C@@H]5NC6(CCCCC6)[C@@]6(C(=O)Nc7cc(Cl)ccc76)[C@H]5c5cccc(Cl)c5F)CC4)cccc3C2=O)C(=O)N1` (some centres not stated), for which the IC50 is 0.9 nM in the assay on RS4-11 [1]; above 1000 nM with RS4-11 [2]; 1 nM in the assay on RS4-11 [5] (RS4-11, 96 h). In the assay with RS4-11 [4], the outcome was Active.
As for `O=C1CCC(N2Cc3c(C#CCCCNC(=O)c4ccc(NC(=O)[C@@H]5NC6(CCCCC6)[C@@]6(C(=O)Nc7cc(Cl)ccc76)[C@H]5c5cccc(Cl)c5F)cn4)cccc3C2=O)C(=O)N1` (some centres not stated), the 50% inhibitory concentration (IC50) in the assay on RS4-11 [1] was 7 nM; in the assay on RS4-11 [2], above 1000 nM.
The like results for `O=C1CCC(N2Cc3c(NC4CN(C(=O)c5ccc(NC(=O)[C@@H]6NC7(CCCCC7)[C@@]7(C(=O)Nc8cc(Cl)ccc87)[C@H]6c6cccc(Cl)c6F)cc5)C4)cccc3C2=O)C(=O)N1` (some centres not stated) were, in that order, 37 nM and above 1000 nM.
The like results for `O=C1CCC(N2Cc3c(C#CCCCCN4CCC(NC(=O)C5CCC(NC(=O)[C@@H]6NC7(CCCCC7)[C@@]7(C(=O)Nc8cc(Cl)ccc87)[C@H]6c6cccc(Cl)c6F)CC5)CC4)cccc3C2=O)C(=O)N1` (some centres not stated) were, in that order, above 1000 nM and above 1000 nM.
As to `O=C1CCC(N2Cc3c(NC4CCN(CCNC(=O)c5ccc(NC(=O)[C@@H]6NC7(CCCCC7)[C@@]7(C(=O)Nc8cc(Cl)ccc87)[C@H]6c6cccc(Cl)c6F)cc5)CC4)cccc3C2=O)C(=O)N1` (some centres not stated), the half-inhibitory concentration (IC50) was 8 nM in the assay with RS4-11 [1] and above 1000 nM in the assay with RS4-11 [2].
Turning to `O=C1CCC(N2Cc3c(C#CCCCNC(=O)[C@H]4C[C@H](NC(=O)[C@@H]5NC6(CCCCC6)[C@@]6(C(=O)Nc7cc(Cl)ccc76)[C@H]5c5cccc(Cl)c5F)C4)cccc3C2=O)C(=O)N1` (some centres not stated), the half-inhibitory concentration (IC50) came to 3 nM with RS4-11 [1] and 7 nM in the assay on RS4-11 [2].
Consider `CN1C(=O)CCC(N2Cc3c(C#CC4CCN(C(=O)[C@H]5CC[C@H](NC(=O)[C@@H]6NC7(CCCCC7)[C@@]7(C(=O)Nc8cc(Cl)ccc87)[C@H]6c6cccc(Cl)c6F)CC5)CC4)cccc3C2=O)C1=O` (some centres not stated), for which the Activity entry in the assay with RS4-11 [5] (time 4.0 day) was “Active; Compound Showed Weaker Cell Growth Inhibition”.
Turning to `O=C1CCC(N2Cc3c(NCC4CN(CCNC(=O)c5ccc(NC(=O)[C@@H]6NC7(CCCCC7)[C@@]7(C(=O)Nc8cc(Cl)ccc87)[C@H]6c6cccc(Cl)c6F)cc5)C4)cccc3C2=O)C(=O)N1` (some centres not stated), the half-inhibitory concentration (IC50) with RS4-11 [1] was 8 nM; in the assay with RS4-11 [2], above 1000 nM.
Take `O=C1CCC(N2Cc3c(CCC4CCN(C(=O)c5ccc(NC(=O)[C@@H]6NC7(CCCCC7)[C@@]7(C(=O)Nc8cc(Cl)ccc87)[C@H]6c6cccc(Cl)c6F)cc5)CC4)cccc3C2=O)C(=O)N1` (some centres not stated): the results for the IC50 in the assay with RS4-11 [1] and in the assay on RS4-11 [2] were 19 nM and above 1000 nM, respectively.
The like results for `O=C1CCC(N2Cc3c(C#CCCCNC(=O)c4ccc(NC(=O)[C@@H]5NC6(CCCCC6)[C@@]6(C(=O)Nc7cc(Cl)ccc76)[C@H]5c5cccc(Cl)c5F)c(F)c4)cccc3C2=O)C(=O)N1` (some centres not stated) were, in that order, 8 nM and above 1000 nM.
For `O=C1CCC(N2Cc3c(NCC4CN(C(=O)c5ccc(NC(=O)[C@@H]6NC7(CCCCC7)[C@@]7(C(=O)Nc8cc(Cl)ccc87)[C@H]6c6cccc(Cl)c6F)cc5)C4)cccc3C2=O)C(=O)N1` (some centres not stated), in that order: 19 nM and above 1000 nM.
As for `O=C(CN1CCC(NC(=O)[C@@H]2NC3(CCCCC3)[C@@]3(C(=O)Nc4cc(Cl)ccc43)[C@H]2c2cccc(Cl)c2F)CC1)NCCCC#Cc1cccc2c1CN(C1CCC(=O)NC1=O)C2=O` (some centres not stated), the IC50 in the assay on RS4-11 [1] is 5 nM; with RS4-11 [2], above 1000 nM. For the same compound, in the assay on RS4-11 [4], the outcome was inactive.
On to `O=C1CCC(N2Cc3c(C#CCCCNC(=O)C45CCC(NC(=O)[C@@H]6NC7(CCCCC7)[C@@]7(C(=O)Nc8cc(Cl)ccc87)[C@H]6c6cccc(Cl)c6F)(CC4)C5)cccc3C2=O)C(=O)N1` (some centres not stated), for which the values for the 50% inhibitory concentration (IC50) with RS4-11 [1] and in the assay with RS4-11 [2] were 2 nM and 3 nM, respectively.
The like results for `O=C1CCC(N2Cc3c(NCC4CCN(C(=O)c5ccc(NC(=O)[C@@H]6NC7(CCCCC7)[C@@]7(C(=O)Nc8cc(Cl)ccc87)[C@H]6c6cccc(Cl)c6F)cc5)CC4)cccc3C2=O)C(=O)N1` (some centres not stated) were, in that order, 19 nM and above 1000 nM.
For `O=C1CCC(N2Cc3c(C#CCCCNC(=O)c4ccc(NC(=O)[C@@H]5NC6(CCCCC6)[C@@]6(C(=O)Nc7cc(Cl)ccc76)[C@H]5c5cccc(Cl)c5F)cc4F)cccc3C2=O)C(=O)N1` (some centres not stated), in that order: 3 nM and above 1000 nM.
The like results for `O=C1CCC(N2Cc3c(NC4CN(CCNC(=O)c5ccc(NC(=O)[C@@H]6NC7(CCCCC7)[C@@]7(C(=O)Nc8cc(Cl)ccc87)[C@H]6c6cccc(Cl)c6F)cc5)C4)cccc3C2=O)C(=O)N1` (some centres not stated) were, in that order, 50 nM and above 1000 nM.
Turning to `O=C1CCC(N2Cc3c(C#CCCCNC(=O)C45CC(NC(=O)[C@@H]6NC7(CCCCC7)[C@@]7(C(=O)Nc8cc(Cl)ccc87)[C@H]6c6cccc(Cl)c6F)(C4)C5)cccc3C2=O)C(=O)N1` (some centres not stated), the IC50 was 3 nM with RS4-11 [1] and 7 nM in the assay on RS4-11 [2].
For `O=C1CCC(N2Cc3c(C#C[C@H]4CC[C@H](NC(=O)c5ccc(NC(=O)[C@@H]6NC7(CCCCC7)[C@@]7(C(=O)Nc8cc(Cl)ccc87)[C@H]6c6cccc(Cl)c6F)cc5)CC4)cccc3C2=O)C(=O)N1` (some centres not stated), in that order: 200 nM and above 1000 nM.
For `O=C1CCC(N2Cc3c(C#CCCCNC(=O)C4CCN(C(=O)[C@@H]5NC6(CCCCC6)[C@@]6(C(=O)Nc7cc(Cl)ccc76)C5c5cccc(Cl)c5F)CC4)cccc3C2=O)C(=O)N1` (single isomer, unassigned), in that order: above 1000 nM and above 1000 nM.
With `O=C1CCC(N2Cc3c(C#CCCCNC(=O)C45CCC(NC(=O)[C@@H]6NC7(CCCCC7)[C@@]7(C(=O)Nc8cc(Cl)ccc87)[C@H]6c6cccc(Cl)c6F)(CC4)CC5)cccc3C2=O)C(=O)N1` (some centres not stated), the IC50 in the assay on RS4-11 [1] was 3 nM; in the assay with RS4-11 [2], above 1000 nM.
With `O=C1CCC(N2Cc3c(CCc4cn(CCCNC(=O)c5ccc(NC(=O)[C@@H]6NC7(CCCCC7)[C@@]7(C(=O)Nc8cc(Cl)ccc87)[C@H]6c6cccc(Cl)c6F)cc5)cn4)cccc3C2=O)C(=O)N1` (some centres not stated), the concentration for half-maximal inhibition (IC50) was 7 nM in the assay on RS4-11 [1] and above 1000 nM in the assay with RS4-11 [2]. Besides, in the assay with RS4-11 [4], the Activity entry is reported as “Active; Compound Showed Minimal Tumor Growth Inhibition”.
With `O=C1CCC(N2Cc3c(C#CCCCNC(=O)c4ccc(NC(=O)[C@@H]5NC6(CCCCC6)[C@@]6(C(=O)Nc7cc(Cl)ccc76)[C@H]5c5cccc(Cl)c5F)nc4)cccc3C2=O)C(=O)N1` (some centres not stated), the IC50 is 2 nM with RS4-11 [1] and above 1000 nM in the assay on RS4-11 [2].
Consider `O=C(O)c1ccc(NC(=O)[C@@H]2NC3(CCCCC3)[C@@]3(C(=O)Nc4cc(Cl)ccc43)[C@H]2c2cccc(Cl)c2F)cc1`, for which the outcome in the assay on RS4-11 [6] was Active. Also, the outcome with RS4-11 [7] was inactive.

These data come from ChEMBL document CHEMBL6083271 (J Med Chem, 2024).
